From patent US9624167B2, “N-(4-hydroxy-4-methyl-cyclohexyl)-4-phenyl-benzenesulfonamides and N-(4-hydroxy-4-methyl-cyclohexyl)-4-(2-pyridyl)benzenesulfonamides and their therapeutic use” (PIMCO 2664 LIMITED, priority 2013, dated 2017)
Like-named read-outs stand apart in the source and are kept apart here.

Key:
Neutrophils = experiment: Human primary leucocyte viability: neutrophils; type: cell-based; settings: 3 μM, 24 hours
Method: (§1) The effects of the reference compound (ABD735) on the viability of neutrophils, monocytes, CD4+ and CD8+ T-cells and B-lymphocytes was assessed under both resting and stimulated conditions. Resting conditions were used to assess likely effects on normal cells found in human blood, and stimulated conditions were used to assess the effects of the compound under disease conditions.
(§2) Effects on cell viability were assessed using flow cytometry. Flow cytometry is a laser-based, biophysical technology employed in cell counting, cell sorting, and biomarker detection, by suspending cells in a stream of fluid and passing them by an electronic detection apparatus. It allows simultaneous multi-parametric analysis of the physical and chemical characteristics of up to thousands of particles per second. The sorting of cells using flow cytometry requires the use of specific cell markers. To quantify cell numbers, counting beads are used as an internal standard. […] In addition, for B- and T-lymphocytes, cell proliferation was measured using a dye known as Cell Proliferation Dye (eFluor® 450). eFluor® 450 is an organic dye which can be conjugated to cell-specific markers. […]
(§3) The average results (n=3) for the reference compound (ABD735) were expressed as a fold change versus the average control value. […]

CD4+ T-lymphocytes [1] = experiment: Human primary leucocyte proliferation: CD4+ T-lymphocytes; type: cell-based; settings: 3 μM, 5 days
Method: as §2, with “standard. Counting beads are a calibrated suspension of microbeads which are added to a known volume of sample so the sample volume per bead is known.” for “standard.”
PBMCs (peripheral blood mononuclear cells) were collected from healthy donors (all female) and isolated by centrifugation on a layer of Ficoll Paque (GE Healthcare, UK). […] Following incubation, the cells were stained with either anti-human CD8 or CD4 before being analysed on a flow cytometer. […]
as §3

CD4+ T-lymphocytes [2] = experiment: Human primary leucocyte viability: CD4+ T-lymphocytes; type: cell-based; settings: 3 μM, 48 hours
Method: as §1, §2, §3

Monocytes = experiment: Human primary leucocyte viability: monocytes; type: cell-based; settings: 3 μM, 48 hours
Method: as §1
Effects on cell viability were assessed using flow cytometry. Flow cytometry is a laser-based, biophysical technology employed in cell counting, cell sorting, and biomarker detection, by suspending cells in a stream of fluid and passing them by an electronic detection apparatus. It allows simultaneous multi-parametric analysis of the physical and chemical characteristics of up to thousands of particles per second. The sorting of cells using flow cytometry requires the use of specific cell markers. To quantify cell numbers, counting beads are used as an internal standard. Counting beads are a calibrated suspension of microbeads which are added to a known volume of sample so the sample volume per bead is known. This allows the absolute determination of cell number in a sample. In addition, for B- and T-lymphocytes, cell proliferation was measured using a dye known as Cell Proliferation Dye (eFluor® 450). eFluor® 450 is an organic dye which can be conjugated to cell-specific markers. It fluoresces when excited by a laser in a manner proportional to the number of cells bound by the conjugate. Its signal therefore provides an indication of the proliferation of specific cell types.
PBMCs (peripheral blood mononuclear cells) were collected from healthy donors (all male) and isolated by centrifugation on a layer of Ficoll Paque (GE Healthcare, UK). Cells were then resuspended (3×10^6 cells/mL) in RPMI supplemented with 10% FCS and antibiotics (penicillin 100 U/mL, streptomycin 100 μg/mL) and 1 mL of cell suspension was added to a 48-well plate, which was then incubated for 1 hour at 37° C./5% CO2. Subsequently, the supernatant was aspirated to remove non-adherent cells, which was followed by two washing steps to ensure removal of non-adhered cells. Adhered cells (monocytes) were then stimulated with either LPS (10 ng/mL), TNFα (10 ng/mL) or macrophage colony stimulating factor (M-CSF) (10 ng/mL) in the absence (control) or presence of reference compound (ABD735) (at 30, 10, 3, 1, or 0.3 μM) for 48 hours at 37° C./5% CO2. Subsequently, the plates were centrifuged and the monocytes washed in PBS before addition of PBS plus EDTA (10 mM) and incubation at 4° C. for 20 minutes to help detach the cells, which was facilitated by pipetting. […]
as §3

[3] = Maximum Tolerated Dose, Han Wistar rats; settings: rat, in vivo, oral
Method: The acute safety of the compounds was assessed in rats in order to enable determination of the maximum tolerated dose (MTD), an indication of a compound's safety in animals. The higher the MTD, the greater is the potential safety of the compound being tested.
At the completion of the study, the results were expressed as the maximum tolerated dose for each compound, this being the highest of each without unacceptable toxicity.
The maximum dose without unacceptable side-effects was determined to be the MTD (expressed in mg/kg).

| Structure (SMILES) | Fold change in viability (Neutrophils; Dexamethasone) | Fold change in viability (Neutrophils; no stimulation) | Fold change in proliferation (CD4+ T-lymphocytes [1]; no stimulation) | Fold change in proliferation (CD4+ T-lymphocytes [1]; phytohaemagglutinin) | Fold change in viability (CD4+ T-lymphocytes [2]; no stimulation) | Fold change in viability (CD4+ T-lymphocytes [2]; phytohaemagglutinin) | Fold change in viability (Monocytes; LPS) | Fold change in viability (Monocytes; M-CSF) | Fold change in viability (Monocytes; TNFα) | Fold change in viability (Monocytes; no stimulation) | MTD ([3]; female Han Wistar rats, read-out: Maximum tolerated dose, Females) [mg/kg] | MTD ([3]; male Han Wistar rats, read-out: Maximum tolerated dose, Males) [mg/kg] |
| --- | --- | --- | --- | --- | --- | --- | --- | --- | --- | --- | --- | --- |
| Cc1cc(S(=O)(=O)N[C@H]2CC[C@H](O)CC2)ccc1-c1ccc(F)cc1F [ABD735] | 0.8 | 1.0 | 1 | 0.6 | 0.9 | 0.6 | 1.0 | 1.1 | 0.5 | 0.7 | – | – |
| C[C@]1(O)CC[C@H](NS(=O)(=O)c2ccc(-c3ccc(Cl)cc3C#N)cc2)CC1 [HMC-C-01-A, 4′-Chloro-2′-cyano-N-((1r,4r)-4-hydroxy-4-methylcyclohexyl)biphenyl-4-sulfonamide] | – | – | – | – | – | – | – | – | – | – | > 500 | > 500 |
